Where a SMILES comes first, the peptide text is derived from it. Bridges are numbered along the chain shown (N, C = ends). [ ]: non-standard residue; d: D form. The star is where a group is joined. hPhe(3,5-F2-4-CF3) = N[C@@H](CCc1cc(F)c(C(F)(F)F)c(F)c1)C(=O)O; hPhe(3-Cl-4-CF3) = N[C@@H](CCc1ccc(C(F)(F)F)c(Cl)c1)C(=O)O; NPrPhe(4-CF3) = CCCN[C@@H](Cc1ccc(C(F)(F)F)cc1)C(=O)O; NMePhe(4-Me) = CN[C@@H](Cc1ccc(C)cc1)C(=O)O; NMeGly(cPent) = CN[C@H](C(=O)O)C1CCCC1; Pro(4,4-F2) = O=C(O)[C@@H]1CC(F)(F)CN1; Hyp = O=C(O)[C@@H]1C[C@@H](O)CN1; NMeD = CN[C@@H](CC(=O)O)C(=O)O; NMeL = CN[C@@H](CC(C)C)C(=O)O; Iva = CC[C@](C)(N)C(=O)O; Morpholide = C1CN(*)CCO1; NMeA = CN[C@@H](C)C(=O)O; Ac5c = NC1(C(=O)O)CCCC1; Aze = O=C(O)[C@@H]1CCN1; Ac4c = NC1(C(=O)O)CCC1; NEtG = CCNCC(=O)O; Sar = CNCC(=O)O
How the values were obtained:
HRAS wild-type protein = HRAS wild-type protein (Homo sapiens, UniProt P01112); test: Binding to HRAS by surface plasmon resonance (SPR), KD and KD ratio to KRAS
Chain of HRAS wild-type protein (P01112 whole entry): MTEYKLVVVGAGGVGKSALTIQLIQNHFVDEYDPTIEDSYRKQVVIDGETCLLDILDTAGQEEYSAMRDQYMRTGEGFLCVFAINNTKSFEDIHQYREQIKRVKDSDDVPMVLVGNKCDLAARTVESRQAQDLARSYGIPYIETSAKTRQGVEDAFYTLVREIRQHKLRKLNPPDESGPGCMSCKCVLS
Method in brief: (§1)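 GDP-loaded biotinylated Avi-tag RAS proteins (E. coli-expressed) captured on a Biotin CAPture chip at ~100–300 RU; single-cycle kinetics at 30°C, 100 µL/min, 75 s injections of rising compound concentrations. HBS pH 7.4 running buffer with 1 mM DTT, 10 mM MgCl2, 10 µM GDP, 4% DMSO. KD from 1:1 binding fit.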

[1] = tested on: human lung cancer strain NCI-H441; type: cell-based
Method in brief: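 Readout: […] after the ATP-based reagent. Compound: serial dilutions in dimethyl sulfoxide.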

[2] = molecular target: GDP-bound NRAS wild-type protein (Homo sapiens, UniProt P01111); test: Binding to NRAS by surface plasmon resonance (SPR), KD and KD ratio to KRAS
Chain of GDP-bound NRAS wild-type protein (P01111 whole entry): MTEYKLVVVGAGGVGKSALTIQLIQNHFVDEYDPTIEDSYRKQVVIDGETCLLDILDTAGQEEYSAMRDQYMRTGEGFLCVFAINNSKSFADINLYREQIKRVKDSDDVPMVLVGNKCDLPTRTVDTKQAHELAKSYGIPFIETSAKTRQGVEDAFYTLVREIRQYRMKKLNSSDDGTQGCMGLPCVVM
Method in brief: as §1

[3] = ratio of KD for HRAS wild-type protein to KD for KRAS
[4] = ratio of KD for GDP-bound NRAS wild-type protein to KD for KRAS
[5] = ratio of the KD value with respect to HRAS wild-type protein to the KD value with respect to KRAS
[6] = ratio of the KD value with respect to GDP-bound NRAS wild-type protein to the KD value with respect to KRAS

| Compound | IC50 [1] [nM] | HRAS /KRAS (HRAS wild-type protein; [3]) | NRAS /KRAS [2, 4] | HRAS /KRAS (HRAS wild-type protein; [5]) | NRAS /KRAS [2, 6] | HRAS /KRAS (HRAS wild-type protein; ratio of KD value for HRAS wild-type protein to KD value for KRAS (SPR)) | NRAS /KRAS ([2]; ratio of KD value for GDP-bound NRAS wild-type protein to KD value for KRAS (SPR)) |
| --- | --- | --- | --- | --- | --- | --- | --- |
| CC[C@H](C)[C@@H]1NC(=O)[C@H](CC(C)C)N(C)C(=O)C[C@@H](C(=O)N2CCOCC2)N(C)C(=O)[C@H](C2CCCC2)N(C)C(=O)C2(CCCC2)NC(=O)[C@@H]2CCCN2C(=O)[C@H](CCc2ccc(C(F)(F)F)c(Cl)c2)NC(=O)CN(CC)C(=O)[C@H](Cc2ccc(C)cc2)N(C)C(=O)[C@@H]2CCN2C(=O)[C@H](C)N(C)C1=O [PP0004] ([NMeL]I[NMeA][Aze][NMePhe(4-Me)][NEtG][hPhe(3-Cl-4-CF3)]P[Ac5c][NMeGly(cPent)][NMeD]-Morpholide; lactam N-11) | 52.9 | C (A compound having a KD ratio of 0.1 or more and less than 3 is denoted as C) | C (A compound having a KD ratio of 0.1 or more and less than 3 is denoted as C) | – | – | – | – |
| CCCN1C(=O)CN(C)C(=O)CN(C)C(=O)[C@H]([C@@H](C)CC)NC(=O)[C@H](CC(C)C)N(C)C(=O)C[C@@H](C(=O)N(C)C)N(C)C(=O)[C@H](C2CCCC2)N(C)C(=O)[C@](C)(CC)NC(=O)[C@@H]2CCCN2C(=O)[C@H](CCc2cc(F)c(C(F)(F)F)c(F)c2)NC(=O)CN(C)C(=O)[C@@H]1Cc1ccc(C(F)(F)F)cc1 [PP0805] ([NMeL]I[Sar][Sar][NPrPhe(4-CF3)][Sar][hPhe(3,5-F2-4-CF3)]P[Iva][NMeGly(cPent)][NMeD]-NMe2; lactam N-11) | 10.3 | C (A compound having a KD ratio of 0.1 or more and less than 3 is denoted as C) | B (a compound having 3 or more and less than 10 is denoted as B) | – | – | – | – |
| CCC[C@H]1C(=O)N[C@@H]([C@@H](C)CC)C(=O)N(C)CC(=O)N(C)[C@H]2C/C=C\CCN(C2=O)[C@@H](Cc2ccc(C)cc2)C(=O)N(C)CC(=O)N[C@@H](CCc2ccc(C(F)(F)F)c(OC)c2)C(=O)N2C[C@H](C)C[C@H]2C(=O)NC2(CC(C)(C)C2)C(=O)N(C)[C@@H](C2CCCC2)C(=O)N(C)[C@H](C(=O)N(C)CC)CC(=O)N1C [PP1891] | 2.6 | – | – | – | – | A (a compound having 10 or more and less than 20 is denoted as A) | A (a compound having 10 or more and less than 20 is denoted as A) |
| C#CCN1CC(=O)N(C)[C@H]2C/C=C\CCN(C2=O)[C@@H](Cc2ccc(C(F)(F)F)cc2)C(=O)N(C)CC(=O)N[C@@H](CCc2cc(F)c(C(F)(F)F)c(F)c2)C(=O)N2C[C@H](OCC)C[C@H]2C(=O)NC2(CC(C)(C)C2)C(=O)N(C)[C@@H](C2CCCC2)C(=O)N(C)[C@H](C(=O)N(C)C)CC(=O)N(C)[C@@H](CC)C(=O)N[C@@H]([C@@H](C)CC)C1=O [PP2087] | 4.8 | – | – | A (a compound having 10 or more and less than 20 is denoted as A) | A (a compound having 10 or more and less than 20 is denoted as A) | – | – |

Now from value to molecule, other results behind:

| IC50 [1] [nM] | Compound | HRAS /KRAS (HRAS wild-type protein; [3]) | NRAS /KRAS [2, 4] | HRAS /KRAS (HRAS wild-type protein; [5]) | NRAS /KRAS [2, 6] | HRAS /KRAS (HRAS wild-type protein; ratio of KD value for HRAS wild-type protein to KD value for KRAS (SPR)) | NRAS /KRAS ([2]; ratio of KD value for GDP-bound NRAS wild-type protein to KD value for KRAS (SPR)) |
| --- | --- | --- | --- | --- | --- | --- | --- |
| 7.6 | CCCN1C(=O)[C@@H]2CCN2C(=O)CN(C)C(=O)[C@H]([C@@H](C)CC)NC(=O)[C@H](CC(C)C)N(C)C(=O)C[C@@H](C(=O)N(C)C)NC(=O)[C@H](C2CCCC2)N(C)C(=O)C2(CCC2)NC(=O)[C@@H]2C[C@@H](OCC)CN2C(=O)[C@H](CCc2ccc(C(F)(F)F)c(Cl)c2)NC(=O)CN(C)C(=O)[C@@H]1Cc1ccc(C(F)(F)F)cc1 [PP0390] ([NMeL]I[Sar][Aze][NPrPhe(4-CF3)][Sar][hPhe(3-Cl-4-CF3)][Hyp](Et)[Ac4c][NMeGly(cPent)]D-NMe2; lactam N-11) | – | – | B (a compound having 3 or more and less than 10 is denoted as B) | C (A compound having a KD ratio of 0.1 or more and less than 3 is denoted as C) | – | – |
| 6.3 | CCCN1C(=O)CN(C)C(=O)CN(CC)C(=O)[C@H]([C@@H](C)CC)NC(=O)[C@H](CC(C)C)N(C)C(=O)C[C@@H](C(=O)N2CCOCC2)N(C)C(=O)[C@H](C2CCCC2)N(C)C(=O)C2(CCCC2)NC(=O)[C@@H]2CC(F)(F)CN2C(=O)[C@H](CCc2ccc(C(F)(F)F)c(Cl)c2)NC(=O)CN(C)C(=O)[C@@H]1Cc1ccc(C(F)(F)F)cc1 [PP0399] ([NMeL]I[NEtG][Sar][NPrPhe(4-CF3)][Sar][hPhe(3-Cl-4-CF3)][Pro(4,4-F2)][Ac5c][NMeGly(cPent)][NMeD]-Morpholide; lactam N-11) | – | – | C (A compound having a KD ratio of 0.1 or more and less than 3 is denoted as C) | B (a compound having 3 or more and less than 10 is denoted as B) | – | – |
| 99.1 | CCCN1C(=O)CN(C)C(=O)CN(CC)C(=O)[C@H]([C@@H](C)CC)NC(=O)[C@H](CC(C)C)N(C)C(=O)C[C@@H](C(=O)N(C)C)NC(=O)[C@H](C2CCCC2)N(C)C(=O)C2(CCCC2)NC(=O)[C@@H]2CCCN2C(=O)[C@H](CCc2ccc(C(F)(F)F)c(Cl)c2)NC(=O)CN(C)C(=O)[C@@H]1Cc1ccc(C(F)(F)F)cc1 [PP0367] ([NMeL]I[NEtG][Sar][NPrPhe(4-CF3)][Sar][hPhe(3-Cl-4-CF3)]P[Ac5c][NMeGly(cPent)]D-NMe2; lactam N-11) | B (a compound having 3 or more and less than 10 is denoted as B) | B (a compound having 3 or more and less than 10 is denoted as B) | – | – | – | – |

— patent publication EP4603105A1, “PHARMACEUTICAL COMPOSITION CONTAINING CYCLIC COMPOUND HAVING SELECTIVE KRAS INHIBITORY EFFECT AGAINST HRAS AND NRAS” (CHUGAI SEIYAKU KABUSHIKI KAISHA, priority 2022, dated 2024)
